Counter-ions that a name gives are not always drawn.
B1: C16: silk polypeptide which comprises 16 repeats of the sequence of module C (SEQ ID NO: 21) (protein)
chain: GSSAAAAAAAASGPGGYGPENQGPSGPGGYGPGGPGSSAAAAAAAASGPGGYGPENQGPSGPGGYGPGGPGSSAAAAAAAASGPGGYGPENQGPSGPGGYGPGGPGSSAAAAAAAASGPGGYGPENQGPSGPGGYGPGGPGSSAAAAAAAASGPGGYGPENQGPSGPGGYGPGGPGSSAAAAAAAASGPGGYGPENQGPSGPGGYGPGGPGSSAAAAAAAASGPGGYGPENQGPSGPGGYGPGGPGSSAAAAAAAASGPGGYGPENQGPSGPGGYGPGGPGSSAAAAAAAASGPGGYGPENQGPSGPGGYGPGGPGSSAAAAAAAASGPGGYGPENQGPSGPGGYGPGGPGSSAAAAAAAASGPGGYGPENQGPSGPGGYGPGGPGSSAAAAAAAASGPGGYGPENQGPSGPGGYGPGGPGSSAAAAAAAASGPGGYGPENQGPSGPGGYGPGGPGSSAAAAAAAASGPGGYGPENQGPSGPGGYGPGGPGSSAAAAAAAASGPGGYGPENQGPSGPGGYGPGGPGSSAAAAAAAASGPGGYGPENQGPSGPGGYGPGGP

Assays:
Assay type in all cases: physicochemical
C16 films = assay: Remote loading of drugs and model protein lysozyme into C16 films; conditions: 30 min, room temperature
Description: Loading efficiency and loading were determinate for lysozyme dissolved in high purified water (HPW). For the remote loading of lysozyme, the loading solution was prepared dissolving 1% w/v lysozyme in high purified water. Three different films were weighted, following by incubation in a 6-well plate with 5 ml of the loading solution at room temperature, at 2 rpm. After 30 min, films were removed and the loading solution was diluted 1:20 and analysed photometrically at 280 nm recording its spectra using a spectrophotometer (Agilent Technologies 8453, Oberhaching, Germany). A calibration curve was prepared using the original lysozyme solution. The same method was performed using as incubation medium of 0.5% and 0.25% of lysozyme.
A) Low molecular weight drugs (tetracain hydrochloride, ethacridine monohydrate lactate, nipagin and phenol red) were dissolved at a concentration of 0.5 mg/ml in highly purified water (HPW), Tris 5 mM pH 7, and formate buffer 5 mM, pH 3, respectively. After dissolving the drugs, all solutions were filtered through a 0.45 μm cellulose acetate filter.
For the remote loading process, the previously cast C16 films were cut into pieces, weighed and placed into 24-well plates. At least four C16 film samples were incubated with 1 ml of each drug solutions for 30 min at gently agitation of 2 rpm at room temperature. After removing the C16 films, the quantities of the loaded drugs were calculated indirectly by measuring the remaining loading solutions photometrically. Finally, the loading and the loading-efficiency for each experimental condition were calculated (see Table 1).
For the remote loading of the model protein lysozyme, the loading solution was prepared by dissolving 1% w/v lysozyme in HPW. As before, three different C16 films were weighed. Afterwards, C16 films were incubated in a 6-well plate with 5 ml of the loading solution at gently agitation of 2 rpm at room temperature. After 30 min, C16 films were removed and the loading solution was analysed photometrically at 280 nm. Spectra were recorded using a spectrophotometer. At physiological pH, spider silk films are negatively charged.
B) For the remote loading of Lysozyme, the loading solution was prepared dissolving 1% w/v lysozyme in high purified water (HPW). Three different C16 films were weighted, followed by incubation in a 6-well plate with 5 ml of the loading solution at gently agitation of 2 rpm at room temperature. After 30 min, C16 films were removed and the loading solution was diluted 1:20 and analyzed photometrically at 280 nm. In particular, a spectra of this solution was subsequently recorded using a spectrophotometer (Agilent Technologies 8453, Oberhaching, Germany). A calibration curve was prepared using the original lysozyme solution. The same method was performed using an incubation medium with 0.5% and 0.25% of Lysozyme.

[1] = Cumulative release of paracetamol, FITC-dextran and FITC-BSA from directly loaded C16 films; conditions: for Release from C16 films (in words): 0.01 M PBS buffer pH 7.4, 37° C.
Description: Paracetamol: Before casting the C16 films, paracetamol was added and dissolved directly in 2.5% C16 protein solution. The resulting films contained each 2.5 mg of paracetamol. Three film samples containing paracetamol were incubated in 0.01 M PBS buffer pH 7.4 at 37° C. At predetermined time points, the buffer was removed and replaced with fresh medium. The release buffer was analyzed by NanoDrop 2000 (peqlab, Erlanger, Germany). […] Each film contained 1.3 mg of FITC-BSA or FD. Films containing the model drugs (n=3) were incubated in 0.01 M PBS buffer pH 7.4 at 37° C. At predetermined time points the buffer was removed and replaced with fresh medium. The release buffer was analyzed using the fluorescence spectrophotometer Cary Eclipse Varian (Agilent technology, Böblingen, Germany) applying an excitation wavelength of 490 nm and an emission of 520 nm. The drug which was not released was quantified by dissolving the film matrix in a 6 M GdmSCN solution. This solution was subsequently analyzed using a fluorescence spectrophotometer.
A) Spray-dried C16 proteins were dissolved in 6 M guanidinium thiocyanate and subsequently dialyzed against 5 mM Tris/HCl buffer, pH 8 at 4° C. The pH was measured using a pH meter. The protein solution was centrifuged at 10000 rpm for 15 min and filtered through a 0.45 μm cellulose acetate filter. The protein concentration was determined photometrically. The protein solution was finally diluted with Tris buffer to 2.5% w/v. Before casting the films, paracetamol was added and dissolved directly in the protein solution. Films (2.5×3 cm) were cast on the plastic foil A5 22/5B from mtv-messtechnik (Koeln, Germany) and dried in a laminar flow cabinet at room temperature overnight at 45% relative humidity. The resulting films contained 2.5 mg of drug. Three film samples containing paracetamol were incubated in 0.01 M PBS buffer, pH 7.4 at 37° C. At predetermined time points, the buffer was removed and replaced with fresh medium. The release buffer was analysed using a UV-Vis spectrophotometer.
Films were cast as described above. Every film contained 25 mg of C16 and 1.3 mg of FITC-BSA or FD, respectively. Films containing the substances were incubated in 0.01 M PBS buffer, pH 7.4 at 37° C. At predetermined time points, the buffer was removed and replaced with fresh medium. The release buffer was analysed using a fluorescence spectrophotometer applying an excitation wavelength of 490 nm and an emission of 520 nm. The substance which was not released was quantified by dissolving the film matrix in a 6M GdmSCN solution. This solution was subsequently analysed using a fluorescence spectrophotometer. The sum of the non-released substance and the released amount of substance was calculated as 100%. […] After direct loading with FITC-BSA, C16 films released almost 65% of the model protein within one week. […] The cumulative release of paracetamol, FITC-dextran 21 kDa (FD) and FITC-BSA from C16 films casted from an aqueous solution is shown in FIG. 6.

[2] = Isoelectric point (pI) of spider silk polypeptides
[3] = HPW (highly purified water), LMW drugs 0.5 mg/ml, lysozyme 1% w/v
[4] = pH 3 (formate buffer 5 mM), drug 0.5 mg/ml
[5] = pH 7 (Tris 5 mM), drug 0.5 mg/ml

Molecule	Loading (L) (C16 films; [3])	Loading efficiency (LE) (C16 films; [3])	Loading (L) (C16 films; [4])	Loading efficiency (LE) (C16 films; [4])	Loading (L) (C16 films; [5])	Loading efficiency (LE) (C16 films; [5])	further results
Lysozyme: model protein, positively charged at physiological pH	39.8 ± 1.8%	22.8 ± 0.7%					
FITC-BSA: FITC-BSA (MW 66.5 kDa), model drug / model protein							Release after the burst (in words) ([1]; after day 1, 0.01 M PBS pH 7.4, 37° C.): constant amount per day; Release from C16 films (in words) ([1]; direct loading): slower; Burst release from C16 films ([1]; on day 1, direct loading, 0.01 M PBS pH 7.4, 37° C.): approx. 30%; Cumulative release from C16 films ([1]; within one week, direct loading, 0.01 M PBS pH 7.4, 37° C.): ~65%
CC(=O)Nc1ccc(O)cc1 [paracetamol]							Release from C16 films (in words) ([1]; direct loading): completely release
CC(O)C(=O)O.CCOc1ccc2nc3cc(N)ccc3c(N)c2c1.O [Ethacridine lact., ethacridine monohydrate lactate]	3.3 ± 0.3%	54.2 ± 3.2%	2.4 ± 0.5%	16.5 ± 5.4%	3.5 ± 1.0%	45.8 ± 2.7%	
CCCCNc1ccc(C(=O)OCCN(C)C)cc1 [Tetracaine HCl, tetracain hydrochloride]	3.8 ± 1.9%	35.1 ± 8.3%	0.0 ± 0.0%	0.0 ± 0.0%	2.5 ± 07%	24.3 ± 7.7%	
COC(=O)c1ccc(O)cc1 [Nipagin, nipagin]	0.8 ± 0.3%	9.6 ± 4.3%	0.5 ± 0.2%	5.3 ± 2.3%	0.0 ± 0.0%	0.0 ± 0.0%	
B1							pI [2]: 3.48
